The text below walks through data of paper PMC8213057, “Targeting ALK2: An Open Science Approach to Developing Therapeutics for the Treatment of Diffuse Intrinsic Pontine Glioma” (Journal of Medicinal Chemistry, 2020).

In one assay the target is CK1G3 (Homo sapiens, UniProt Q9Y6M4). The assay can be described thus: biochemical. The conditions noted are these: read-out: % enzyme activity, 1 μM; Run 1, Run 2.
In a further assay the target is FRK/PTK5 (Homo sapiens, UniProt P42685). The assay can be described thus: biochemical. The conditions noted are these: read-out: % enzyme activity, 1 μM; Run 1, Run 2.
FRK/PTK5, sequence (P42685 whole entry): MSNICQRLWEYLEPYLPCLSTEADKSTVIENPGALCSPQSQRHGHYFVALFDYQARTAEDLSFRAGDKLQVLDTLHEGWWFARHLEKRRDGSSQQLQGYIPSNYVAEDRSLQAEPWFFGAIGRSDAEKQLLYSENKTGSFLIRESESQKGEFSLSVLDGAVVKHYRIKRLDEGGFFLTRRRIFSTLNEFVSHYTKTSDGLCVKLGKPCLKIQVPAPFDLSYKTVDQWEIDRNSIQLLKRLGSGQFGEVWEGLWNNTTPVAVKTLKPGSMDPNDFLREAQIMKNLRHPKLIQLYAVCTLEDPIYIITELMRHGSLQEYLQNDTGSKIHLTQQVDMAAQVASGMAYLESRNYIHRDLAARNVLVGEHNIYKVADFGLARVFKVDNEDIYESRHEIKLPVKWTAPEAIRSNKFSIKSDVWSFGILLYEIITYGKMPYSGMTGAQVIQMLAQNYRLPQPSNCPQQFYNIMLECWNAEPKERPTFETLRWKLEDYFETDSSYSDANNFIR
The target in another assay is CLK2 (Homo sapiens, UniProt P49760). The conditions noted are these: 1 μM; Run 1, Run 2.
CLK2, sequence (P49760 whole entry): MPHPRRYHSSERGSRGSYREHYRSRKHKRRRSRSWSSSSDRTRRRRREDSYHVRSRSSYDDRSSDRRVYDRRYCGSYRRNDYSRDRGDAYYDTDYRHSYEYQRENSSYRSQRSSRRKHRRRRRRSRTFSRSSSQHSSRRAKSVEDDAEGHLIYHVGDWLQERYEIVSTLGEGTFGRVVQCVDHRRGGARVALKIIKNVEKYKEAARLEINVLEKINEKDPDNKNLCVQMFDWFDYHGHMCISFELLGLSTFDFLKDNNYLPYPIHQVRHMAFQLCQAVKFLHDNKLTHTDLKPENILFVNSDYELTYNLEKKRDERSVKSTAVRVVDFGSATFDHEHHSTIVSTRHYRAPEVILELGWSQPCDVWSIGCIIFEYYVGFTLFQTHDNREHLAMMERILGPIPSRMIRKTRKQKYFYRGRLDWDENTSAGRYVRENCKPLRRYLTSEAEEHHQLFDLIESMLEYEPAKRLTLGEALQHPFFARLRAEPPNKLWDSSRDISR
The target of the next assay is TIE2/TEK (Homo sapiens, UniProt Q02763). The conditions noted are these: 1 μM; Run 1, Run 2.
TIE2/TEK, sequence (Q02763 23-1124): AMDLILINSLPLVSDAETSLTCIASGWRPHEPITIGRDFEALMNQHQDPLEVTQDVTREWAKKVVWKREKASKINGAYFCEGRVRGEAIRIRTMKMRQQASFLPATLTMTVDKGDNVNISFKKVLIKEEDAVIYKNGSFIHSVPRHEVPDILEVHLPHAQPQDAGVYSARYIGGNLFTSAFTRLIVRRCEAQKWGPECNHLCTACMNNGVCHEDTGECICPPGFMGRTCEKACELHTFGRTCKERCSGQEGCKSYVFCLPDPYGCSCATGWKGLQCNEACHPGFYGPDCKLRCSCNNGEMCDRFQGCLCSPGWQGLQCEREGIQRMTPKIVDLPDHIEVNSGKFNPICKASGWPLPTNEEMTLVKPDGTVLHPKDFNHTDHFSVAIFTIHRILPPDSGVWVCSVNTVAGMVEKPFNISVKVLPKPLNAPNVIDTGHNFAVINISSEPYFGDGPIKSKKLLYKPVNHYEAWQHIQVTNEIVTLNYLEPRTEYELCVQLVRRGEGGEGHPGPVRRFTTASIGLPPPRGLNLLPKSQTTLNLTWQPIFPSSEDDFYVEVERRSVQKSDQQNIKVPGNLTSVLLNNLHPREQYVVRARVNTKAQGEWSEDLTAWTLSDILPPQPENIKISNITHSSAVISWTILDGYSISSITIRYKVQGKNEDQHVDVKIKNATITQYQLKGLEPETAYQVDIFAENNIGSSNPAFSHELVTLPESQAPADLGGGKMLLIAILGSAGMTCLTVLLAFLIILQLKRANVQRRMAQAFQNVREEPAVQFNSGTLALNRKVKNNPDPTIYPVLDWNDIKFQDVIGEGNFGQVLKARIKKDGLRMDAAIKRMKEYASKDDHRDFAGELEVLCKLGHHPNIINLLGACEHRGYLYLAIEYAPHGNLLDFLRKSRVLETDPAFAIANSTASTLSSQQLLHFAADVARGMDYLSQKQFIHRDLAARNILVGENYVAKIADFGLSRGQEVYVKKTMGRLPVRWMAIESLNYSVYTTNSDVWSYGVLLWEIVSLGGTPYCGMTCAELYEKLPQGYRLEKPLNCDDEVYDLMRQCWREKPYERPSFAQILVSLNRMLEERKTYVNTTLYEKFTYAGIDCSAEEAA
In the next assay the target is T1, PHKg2 (Homo sapiens, UniProt P15735).
T1 sequence (P15735 1-406): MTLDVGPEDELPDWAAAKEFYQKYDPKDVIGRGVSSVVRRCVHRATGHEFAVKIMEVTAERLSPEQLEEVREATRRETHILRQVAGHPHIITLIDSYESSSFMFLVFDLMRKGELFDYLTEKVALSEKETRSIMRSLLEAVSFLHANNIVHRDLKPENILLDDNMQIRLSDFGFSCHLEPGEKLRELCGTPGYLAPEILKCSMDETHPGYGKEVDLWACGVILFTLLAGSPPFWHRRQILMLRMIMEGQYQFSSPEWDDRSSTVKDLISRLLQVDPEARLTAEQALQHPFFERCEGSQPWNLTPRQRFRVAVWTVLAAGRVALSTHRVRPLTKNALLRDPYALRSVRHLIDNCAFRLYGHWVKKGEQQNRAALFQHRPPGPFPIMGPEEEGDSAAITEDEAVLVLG
The assay can be described thus: biochemical. The conditions noted are these: read-out: % enzyme activity, 1 μM; Run 1, Run 2.

The target of a further assay is T2, TAOK1 (Homo sapiens, UniProt Q7L7X3).
T2 construct: purchased Reaction Biology Corporation
T2 sequence (Q7L7X3 1-1001): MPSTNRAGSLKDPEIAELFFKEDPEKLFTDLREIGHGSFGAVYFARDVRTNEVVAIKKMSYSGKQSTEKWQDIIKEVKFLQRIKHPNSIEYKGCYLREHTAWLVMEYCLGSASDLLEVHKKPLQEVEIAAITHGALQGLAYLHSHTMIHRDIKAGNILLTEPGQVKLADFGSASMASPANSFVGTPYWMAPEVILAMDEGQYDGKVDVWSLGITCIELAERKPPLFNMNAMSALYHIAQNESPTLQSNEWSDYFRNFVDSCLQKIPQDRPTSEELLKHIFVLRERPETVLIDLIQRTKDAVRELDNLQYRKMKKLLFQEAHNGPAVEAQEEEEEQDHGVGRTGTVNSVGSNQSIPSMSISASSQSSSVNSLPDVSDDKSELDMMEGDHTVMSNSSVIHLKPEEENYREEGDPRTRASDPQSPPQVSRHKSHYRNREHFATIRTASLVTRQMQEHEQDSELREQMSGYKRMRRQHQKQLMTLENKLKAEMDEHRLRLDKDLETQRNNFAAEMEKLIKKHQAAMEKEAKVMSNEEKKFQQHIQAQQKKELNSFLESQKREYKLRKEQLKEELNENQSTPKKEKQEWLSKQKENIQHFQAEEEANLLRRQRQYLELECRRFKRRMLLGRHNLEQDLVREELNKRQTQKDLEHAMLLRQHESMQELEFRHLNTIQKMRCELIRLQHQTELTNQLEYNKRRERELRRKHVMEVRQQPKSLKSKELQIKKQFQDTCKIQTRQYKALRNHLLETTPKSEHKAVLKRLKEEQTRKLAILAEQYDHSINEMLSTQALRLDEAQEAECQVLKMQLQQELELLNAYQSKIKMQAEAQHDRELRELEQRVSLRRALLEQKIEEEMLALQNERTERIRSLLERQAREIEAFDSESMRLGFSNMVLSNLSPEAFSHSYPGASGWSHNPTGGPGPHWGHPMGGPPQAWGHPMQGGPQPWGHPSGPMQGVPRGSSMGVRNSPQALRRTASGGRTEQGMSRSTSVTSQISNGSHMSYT
Nature of the assay: 375-member kinase panel. The assay is classed as biochemical. The conditions noted are these: Run 1, Run 2; for % enzyme activity: 1 μM; for remaining activity at 1 µM: read-out: % enzyme activity, 1 μM.

The target of a further assay is ERN1/IRE1 (Homo sapiens, UniProt O75460). The conditions noted are these: 1 μM; Run 1, Run 2.
ERN1/IRE1, sequence (O75460 19-977): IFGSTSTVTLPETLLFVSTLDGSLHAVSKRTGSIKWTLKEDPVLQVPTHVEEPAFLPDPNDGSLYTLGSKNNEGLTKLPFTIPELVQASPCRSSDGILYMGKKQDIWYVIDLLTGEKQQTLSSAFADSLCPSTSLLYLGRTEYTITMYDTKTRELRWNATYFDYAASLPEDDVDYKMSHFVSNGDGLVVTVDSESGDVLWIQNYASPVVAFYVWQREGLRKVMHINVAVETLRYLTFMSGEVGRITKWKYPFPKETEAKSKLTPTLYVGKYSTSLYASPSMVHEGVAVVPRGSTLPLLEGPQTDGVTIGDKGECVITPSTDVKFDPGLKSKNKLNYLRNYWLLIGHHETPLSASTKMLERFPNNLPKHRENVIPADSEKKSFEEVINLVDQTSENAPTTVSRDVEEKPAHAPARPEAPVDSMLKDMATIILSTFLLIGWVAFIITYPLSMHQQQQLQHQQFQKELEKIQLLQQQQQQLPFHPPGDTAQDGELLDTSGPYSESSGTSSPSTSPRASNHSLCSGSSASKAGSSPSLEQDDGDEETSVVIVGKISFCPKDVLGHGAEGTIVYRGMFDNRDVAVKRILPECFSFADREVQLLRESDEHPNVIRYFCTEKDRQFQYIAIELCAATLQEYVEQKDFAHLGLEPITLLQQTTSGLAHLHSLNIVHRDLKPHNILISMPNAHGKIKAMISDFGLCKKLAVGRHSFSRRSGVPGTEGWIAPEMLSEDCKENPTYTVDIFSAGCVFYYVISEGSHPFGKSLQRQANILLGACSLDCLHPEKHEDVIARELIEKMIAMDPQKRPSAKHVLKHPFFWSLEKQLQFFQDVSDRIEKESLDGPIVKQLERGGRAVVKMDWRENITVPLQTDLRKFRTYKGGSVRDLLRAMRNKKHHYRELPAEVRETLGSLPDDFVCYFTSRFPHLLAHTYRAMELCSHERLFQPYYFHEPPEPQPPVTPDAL
In a further assay the target is T3, MAK (Homo sapiens, UniProt P20794).
T3 sequence (P20794 1-623): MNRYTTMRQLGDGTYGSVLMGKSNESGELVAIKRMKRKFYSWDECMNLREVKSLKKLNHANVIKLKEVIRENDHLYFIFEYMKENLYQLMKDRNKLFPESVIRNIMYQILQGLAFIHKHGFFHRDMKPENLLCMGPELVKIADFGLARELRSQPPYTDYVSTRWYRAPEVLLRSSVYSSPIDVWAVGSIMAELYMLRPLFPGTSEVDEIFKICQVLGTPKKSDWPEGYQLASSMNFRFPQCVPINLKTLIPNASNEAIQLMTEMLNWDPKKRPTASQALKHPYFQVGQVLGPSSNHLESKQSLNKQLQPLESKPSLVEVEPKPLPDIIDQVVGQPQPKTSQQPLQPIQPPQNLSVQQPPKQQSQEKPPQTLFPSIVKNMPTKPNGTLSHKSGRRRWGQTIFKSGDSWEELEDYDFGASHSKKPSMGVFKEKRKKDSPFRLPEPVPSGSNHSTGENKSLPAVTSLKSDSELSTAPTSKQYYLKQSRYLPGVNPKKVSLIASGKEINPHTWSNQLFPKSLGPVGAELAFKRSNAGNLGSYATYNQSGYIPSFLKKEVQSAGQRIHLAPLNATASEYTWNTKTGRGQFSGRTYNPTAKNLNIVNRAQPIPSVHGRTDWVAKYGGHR
The assay can be described thus: biochemical. The conditions noted are these: read-out: % enzyme activity, 1 μM; Run 1, Run 2.

SMILES strings stand for the structures.

CK1G3, sequence (Q9Y6M4 whole entry): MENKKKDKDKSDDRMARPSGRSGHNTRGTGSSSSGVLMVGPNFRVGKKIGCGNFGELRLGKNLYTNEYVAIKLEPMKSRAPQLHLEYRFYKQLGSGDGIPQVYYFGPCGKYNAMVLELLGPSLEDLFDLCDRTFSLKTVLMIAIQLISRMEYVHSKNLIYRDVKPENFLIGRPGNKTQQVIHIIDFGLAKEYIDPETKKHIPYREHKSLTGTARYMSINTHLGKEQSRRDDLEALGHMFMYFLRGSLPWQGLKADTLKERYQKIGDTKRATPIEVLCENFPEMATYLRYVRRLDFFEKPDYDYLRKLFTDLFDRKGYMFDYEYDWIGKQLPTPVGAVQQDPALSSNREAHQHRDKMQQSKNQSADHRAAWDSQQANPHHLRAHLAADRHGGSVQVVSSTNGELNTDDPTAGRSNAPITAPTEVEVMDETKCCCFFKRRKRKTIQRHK

`COc1cc(-c2cncc(-c3ccc(N4C[C@@H](C)N(C)[C@@H](C)C4)cc3)c2C)cc(F)c1C(N)=O` [Compound 26c, 2-Fluoro-6-methoxy-4-(4-methyl-5-(4-((3R,5S)-3,4,5-trimethylpiperazin-1-yl)phenyl)pyridin-3-yl)benzamide]: the remaining activity at 1 µM on CK1G3 came out at 78.8%; at FRK/PTK5 it was 98.2%; at PHKg2 it was 96.7%; at TAOK1, 62.2%; at MAK it was 119%. The “% enzyme activity” value at CLK2 was determined as 85.73%; on TIE2/TEK, 92.15%; on TAOK1, 60.59%; at ERN1/IRE1, 90.44%.

As to `COc1cc(-c2cncc(-c3ccc(N4CCN(C)CC4)cc3)c2C)cc(F)c1C(N)=O` [Compound 26a, 2-Fluoro-6-methoxy-4-(4-methyl-5-(4-(4-methylpiperazin-1-yl)phenyl)pyridin-3-yl)benzamide], the remaining activity at 1 µM was found to be 65.9% at CK1G3; 101% on FRK/PTK5; 94.9% at PHKg2; 60.3% at TAOK1; 99.2% at MAK. Moreover, the “% enzyme activity” value on CLK2 is 91.71%; at TIE2/TEK, 92.85%; at TAOK1 it was 60.19%; on ERN1/IRE1, 92.47%.
